{"source": "patent US4932871A", "about": "“Rapid method for preparing chromogenic alpha-amylase substrate compounds at high preparative yields” (Miles Inc., priority 1987, dated 1990)", "key": {"β-D-glucosidase": {"tested_on": "β-D-glucosidase", "assay": "Hydrolysis of the glucoside substrate by β-D-glucosidase (Kcat, Km)", "type": "biochemical", "details": "50 mM phosphate buffered solution (pH 7.4) containing 5.0 mM MgCl2"}, "[1]": {"assay": "Solubility in phosphate buffered solution", "type": "physicochemical", "details": "phosphate buffered solution (pH 7.4)", "excerpt": "The resulting glucoside has an absorbance (λmax) of 438 nm (yellow), an extinction coefficient of 27,400, and is soluble in a phosphate buffered solution (pH 7.4). […] Accordingly, such compound provides a very advantageous substrate for a secondary enzyme, such as β-D-glucosidase, in an assay system for α-amylase."}, "α-amylase [2]": {"tested_on": "α-amylase", "assay": "Liquid analytical test system for the detection of α-amylase (DMA-G7, α-glucosidase, β-glucosidase)", "type": "biochemical", "details": "average of three consecutive readings between 3 and 6 minutes", "experimental": "A liquid α-amylase detection reagent was prepared by combining 1.8 mM DMA-G7 prepared according to Example 2, 38 units of α-glucosidase and 20 units of β-glucosidase in 1.0 mL of buffered solution comprising 50 mM PIPES, 50 mM NaCl, and 5.0 mM calcium chloride (pH 7.0). Amylase control serum (0.025 mL) containing 37 IU/L, 175 IU/L, and 313 IU/L, respectively, of α-amylase were added to the detection reagent, independently, and incubated at 37° C. The enzymatic action of α-amylase on the substrate compound in each of the mixtures liberated the shorter chain chromogenic maltooligosaccharide compounds thereof (e.g., DMA-G2 to DMA-G4) which, in turn, were enzymatically acted upon by the α-glucosidase and β-glucosidaseto liberate the optically active form or anion of the 7-hydroxy-9,9-dimethyl- 9H-acridin-2-one chromogen. The rate of color change produced by the liberated chromogen in each of the mixtures was measured at 634 nm on a Cary 219 spectrophotometer (Varian Associates, Inc., Sonnyvale, Calif., USA) from between 1 and 9 minutes after each of the serum samples were added to the detection reagent (Table 2/FIG. 4)."}, "α-amylase [3]": {"tested_on": "α-amylase", "assay": "Analytical test device for the detection of α-amylase (filter paper impregnated with DMA-G7 reagent)", "type": "biochemical", "details": "between 180 and 200 seconds, three aliquots", "experimental": "A sheet of Whatman 54 filter paper (Whatman, Inc., Clifton, N.J., USA) was immersed into a solution comprising the liquid α-amylase detection reagent prepared according to Example 3, 0.1% Triton X-100 (Sigma Chemical Co., St. Louis, Mo., USA) and 0.5% carboxycellulose, and dried.\nAnalytical test devices were prepared by mounting 0.5 cm wide ×1.0 cm long segment of the aforementioned impregnated filter paper onto and along the edge of one surface of 0.5 cm×8.125 cm polystyrene supports (Tricite®, Dow Chemical Co., Midland, Mich., USA) previously laminated with a 2 mm strip of Double Stick® double-faced adhesive tape (3M Company, St. Paul, Minn., USA).\nThree 30 μL aliquots of undiluted serum containing 39 IU/L, 78 IU/L, 117 IU/L, 157 IU/L, 235 IU/L, and 313 IU/L, respectively, of α-amylase were applied, independently, to a test device and the rate of color change produced by the liberated chromogen on each device was measured at 630 nm on a Seralyzer® reflectance photometer (Miles Inc., Elkhart, Ind., USA) from between 0 seconds and 240 seconds after the serum sample was added to each test device."}}, "note": "“And” between values parts separate entries of the source, which are not always exact repeats. Identical values can stand only once."}
{"smiles": "CC1(C)C2=CC(=O)C=CC2=Nc2ccc(O[C@@H]3O[C@H](CO)[C@@H](O)[C@H](O)[C@H]3O)cc21", "note": "[DMA-G1, 7-β-D-glucopyranosyloxy-9,9-dimethyl-9H-acridin-2-one]", "values": [{"measurement": "rate at which the enzyme cleaves the substrate (Kcat)", "setting": "β-D-glucosidase", "value": "1.32×10^4 mol min.^-1 /mol. active site"}, {"measurement": "Km", "setting": "β-D-glucosidase; read-out: binding constant (Km)", "value": 170, "unit": "µM"}, {"measurement": "solubility", "setting": "[1]", "value": "soluble"}]}
{"smiles": "CC1(C)C2=CC(=O)C=CC2=Nc2ccc(O[C@@H]3O[C@H](CO)[C@@H](O[C@H]4O[C@H](CO)[C@@H](O[C@H]5O[C@H](CO)[C@@H](O[C@H]6O[C@H](CO)[C@@H](O[C@H]7O[C@H](CO)[C@@H](O[C@H]8O[C@H](CO)[C@@H](O[C@H]9O[C@H](CO)[C@@H](O)[C@H](O)[C@H]9O)[C@H](O)[C@H]8O)[C@H](O)[C@H]7O)[C@H](O)[C@H]6O)[C@H](O)[C@H]5O)[C@H](O)[C@H]4O)[C@H](O)[C@H]3O)cc21", "note": "[DMA-G7, 7-β-maltoheptaosyloxy-9,9-dimethyl-acridin-2-one]", "values": [{"measurement": "α-amylase reactivity, rate of color change at 634 nm", "setting": "α-amylase [2]; 37 IU/L α-amylase", "value": 0.011, "unit": "Absorbance/Minute"}, {"measurement": "α-amylase reactivity, rate of color change at 634 nm", "setting": "α-amylase [2]; 175 IU/L α-amylase", "value": 0.062, "unit": "Absorbance/Minute"}, {"measurement": "α-amylase reactivity, rate of color change at 634 nm", "setting": "α-amylase [2]; 313 IU/L α-amylase", "value": 0.109, "unit": "Absorbance/Minute"}, {"measurement": "Reactivity (linear regression of L(R), reflectance at 630 nm)", "setting": "α-amylase [3]; 39 IU/L α-amylase in undiluted serum", "value": "0.384 × 10^-2 and 0.373 × 10^-2 and 0.359 × 10^-2"}, {"measurement": "Reactivity (linear regression of L(R), reflectance at 630 nm)", "setting": "α-amylase [3]; 78 IU/L α-amylase in undiluted serum", "value": "0.957 × 10^-2 and 0.941 × 10^-2 and 0.954 × 10^-2"}, {"measurement": "Reactivity (linear regression of L(R), reflectance at 630 nm)", "setting": "α-amylase [3]; 117 IU/L α-amylase in undiluted serum", "value": "1.450 × 10^-2 and 1.510 × 10^-2 and 1.430 × 10^-2"}, {"measurement": "Reactivity (linear regression of L(R), reflectance at 630 nm)", "setting": "α-amylase [3]; 157 IU/L α-amylase in undiluted serum", "value": "1.781 × 10^-2 and 1.999 × 10^-2 and 1.886 × 10^-2"}, {"measurement": "Reactivity (linear regression of L(R), reflectance at 630 nm)", "setting": "α-amylase [3]; 235 IU/L α-amylase in undiluted serum", "value": "2.560 × 10^-2 and 2.596 × 10^-2 and 2.610 × 10^-2"}, {"measurement": "Reactivity (linear regression of L(R), reflectance at 630 nm)", "setting": "α-amylase [3]; 313 IU/L α-amylase in undiluted serum", "value": "2.961 × 10^-2 and 2.989 × 10^-2 and 2.916 × 10^-2"}]}
{"smiles": "CC1(C)C2=CC(=O)C=CC2=Nc2ccc(O)cc21", "note": "[liberated chromogen anion, 7-hydroxy-9,9-dimethyl-9H-acridin-2-one]", "values": [{"measurement": "solubility", "setting": "[1]", "value": "soluble"}]}
